Source: patent US6020360A, “Anticancer property of dithiolopyrrolones” (priority 1996, dated 2000)
Values after ≈ are worked out from the molar mass of the structure shown.

Assays:
[1] = system: human colon cancer cell line HT-29; assay: Anticancer activity, SRB growth assay in human colon cancer cell line HT-29 (3 days); type: cell-based; details: HT-29, 72 h, HT29, 2,500 cells/well, 570 nm, 0.008-1 μg/ml tested
Experimental: (§1) These assays are commonly used by those skilled in the art and are accepted as indicative of anticancer activity in mammals. The anticancer activities of dithiolopyrrolones have been determined in cell cultures of human colon cancer cell line HT-29, breast cancer cell line MCF-7 and cervical cancer cell line Hela. The procedure was carried out using the method described by Skehan et al. (1990). Briefly, cancer cells were grown in RPMI-1640 medium with glutamine and 10% fetal calf serum, and were harvested from exponential-phase maintenance cultures. The harvested cells were counted and dispensed into replicate 96-well culture plates in 180 μl volumes for each well with a cell density of 2,500 cells/well. The cells were allowed to settle for about 4 hours at 37° C. Then 20 μl of medium containing the test dithiolopyrrolone was added into each well, resulting in a final test compound concentration between 0.008-1 μg/ml. The test plates were then incubated at 37° C. The test was terminated 3 days after incubation by adding to each well 50 μl of cold 50% trichloroacetic acid. The cells were fixed for an hour at 4° C. and then washed five times with tap water. The washed plates were air-dried and stained for 30 minutes with 0.4% (wt/vol) sulforhodamine B (SRB) which was dissolved in 1% acetic acid. […] Finally, the plates were read in a microtiter plate reader at 570 nm.

[2] = system: cervical cancer cell line Hela; assay: Anticancer activity, SRB growth assay in cervical cancer cell line Hela (3 days); type: cell-based; details: Homo sapiens, 72 h, 2,500 cells/well, 570 nm, 0.008-1 μg/ml tested
Experimental: These assays are commonly used by those skilled in the art and are accepted as indicative of anticancer activity in mammals. The anticancer activities of dithiolopyrrolones have been determined in cell cultures of human colon cancer cell line HT-29, breast cancer cell line MCF-7 and cervical cancer cell line Hela. The procedure was carried out using the method described by Skehan et al. (1990). Briefly, cancer cells were grown in RPMI-1640 medium with glutamine and 10% fetal calf serum, and were harvested from exponential-phase maintenance cultures. The harvested cells were counted and dispensed into replicate 96-well culture plates in 180 μl volumes for each well with a cell density of 2,500 cells/well. The cells were allowed to settle for about 4 hours at 37° C. Then 20 μl of medium containing the test dithiolopyrrolone was added into each well, resulting in a final test compound concentration between 0.008-1 μg/ml. The test plates were then incubated at 37° C. The test was terminated 3 days after incubation by adding to each well 50 μl of cold 50% trichloroacetic acid. The cells were fixed for an hour at 4° C. and then washed five times with tap water. The washed plates were air-dried and stained for 30 minutes with 0.4% (wt/vol) sulforhodamine B (SRB) which was dissolved in 1% acetic acid. At the end of the staining period, the SRB was removed and plates were quickly rinsed, five times with 1 % acetic acid. After being rinsed, the plates were air-dried and 100 μl of 10 mM tris base (pH 10.5) were added to each well to solubilize the dye bound to the cells. The plates were placed on a gyratory shaker and shaken (100 rpm) for 10 minutes. Finally, the plates were read in a microtiter plate reader at 570 nm.

platelet aggregation = details: in vitro; Ninomiya et al., 1980; cited from earlier work
membrane = details: Ninomiya et al., 1980; cited from earlier work
[3] = system: breast cancer cell line MCF-7; assay: Anticancer activity, SRB growth assay in breast cancer cell line MCF-7 (3 days); type: cell-based; details: Homo sapiens, MCF7, 72 h, 2,500 cells/well, 570 nm, 0.008-1 μg/ml tested
Experimental: as §1

mammary cells = mammary cells exposed to carcinogens; Menta and Moon, 1991; Arnold et al., 1995; cited from earlier work
[4] = system: ornithin decarboxylase (ODC); details: Sharma et al., 1994; cited from earlier work
RNA polymerase = details: Jimenez et al., 1973, Tipper; cited from earlier work
glutathione = details: Sharma et al., 1994; cited from earlier work

Row | Compound | IC50 [1] [µg/mL] | IC50 [2] [µg/mL] | inhibition of platelet aggregation (in words) (platelet aggregation) | membrane stabilization activity (in words) (membrane) | IC50 [3] [µg/mL] | inhibition of promotion of carcinogenesis-associated activities (in words) (mammary cells) | inhibition of ODC (in words) [4] | inhibition of RNA polymerase synthesis (in words) (RNA polymerase) | reduction of glutathione (in words) (glutathione)
1 | CC(=O)Nc1c2sscc-2n(C)c1=O [XN0, N-(4,5-dihydro-4-methyl-5-oxo-1,2-dithiolo[4,3-b]pyrrol-6-yl)acetamide] | 0.03 (≈ 0.131 µM) | 0.07 (≈ 0.307 µM) | inhibits platelet aggregation in vitro | has membrane stabilization activity | 0.08 (≈ 0.35 µM) | inhibits the promotion of several other activities possibly associated with the occurrence of carcinogenesis in mammary cells | inhibits OCD | inhibits RNA polymerase synthesis | induces the reduction of glutathione
2 | CCCCCC(=O)Nc1c2sscc-2n(C)c1=O [XN1, N-(4,5-dihydro-4-methyl-5-oxo-1,2-dithiolo[4,3-b]pyrrol-6-yl)hexanoamide] | – | 0.13 (≈ 0.457 µM) | – | – | – | – | – | – | –
3 | CC(C)CCCC(=O)Nc1c2sscc-2[nH]c1=O [XN3, N-(4,5-dihydro-5-oxo-1,2-dithiolo[4,3-b]pyrrol-6-yl)5-methylhexanoamide] | – | 0.09 (≈ 0.316 µM) | – | – | – | – | – | – | –
